In BindingDB's records for doi:10.1021/acs.jmedchem.8b01224 (Helmholtz Zentrum M?nchen, 2018):

Tests used:
[1] = molecular target: T1, Tyrosine-protein phosphatase non-receptor type 1 (Homo sapiens, UniProt P18031); assay: (§1) Binding affinity to human N-terminal His6-tagged PTP1B catalytic domain (1 to 298 residues) expressed in Escherichia coli strain Rosetta2 (DE3) assessed as dissociation rate constant using DiFMUP as substrate preincubated for 10 mins followed by substrate addition measured for 10 mins fluorescence assay
T1 sequence (P18031 whole entry): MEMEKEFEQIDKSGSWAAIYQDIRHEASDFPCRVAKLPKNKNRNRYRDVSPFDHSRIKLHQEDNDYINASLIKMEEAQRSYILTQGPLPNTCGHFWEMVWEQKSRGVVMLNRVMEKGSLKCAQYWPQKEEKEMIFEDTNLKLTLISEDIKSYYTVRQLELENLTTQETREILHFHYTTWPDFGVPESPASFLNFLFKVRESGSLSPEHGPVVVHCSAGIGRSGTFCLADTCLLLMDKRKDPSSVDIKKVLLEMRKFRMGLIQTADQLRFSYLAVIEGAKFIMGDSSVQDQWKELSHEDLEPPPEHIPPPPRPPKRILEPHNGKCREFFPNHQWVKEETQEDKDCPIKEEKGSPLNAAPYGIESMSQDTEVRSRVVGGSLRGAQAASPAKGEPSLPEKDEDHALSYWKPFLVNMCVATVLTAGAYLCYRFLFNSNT

[2] = molecular target: T1, Tyrosine-protein phosphatase non-receptor type 1; assay: as §1, with “association” for “dissociation”

Work on `C=c1c(O)c(O)cc2c1=CC=C1[C@@]2(C)CC[C@@]2(C)[C@@H]3C[C@](C)(C(=O)O)CC[C@]3(C)CC[C@]12C` yielded a koff [1] of 0.000362 s⁻¹ and a kon [2] of 59 M⁻¹ s⁻¹.
